Read-outs that look alike come from different tables or passages of the source.
Legend:
[1] = PAMPA-BBB permeability assay
D283-med cell line = experiment: Cytotoxicity against D283-med cells; format: cell-based, human
SF188 cell line = experiment: Cytotoxicity against SF188 cells; format: cell-based, human
H460 cell line = experiment: Cytotoxicity against H460 cells; format: cell-based; conditions: read-out: H460 IC50; non-small cell lung cancer cell line
[2] = Homo sapiens, D283 Med, read-out: D283-med IC50, medulloblastoma cell line
[3] = Homo sapiens, SF-188, read-out: SF188 IC50, glioblastoma cell line
[4] = read-out: D283-med IC50, medulloblastoma cell line
[5] = read-out: SF188 IC50, glioblastoma cell line

Row | SMILES | IC50 (H460 cell line) | IC50 (D283-med cell line; [4]) | IC50 (SF188 cell line; [5]) | further results
1 | CCCCCC(=O)N[C@H](C(=O)NC(CSc1c(F)c(F)c(F)c(F)c1F)C(=O)N[C@@H](CC(C)C)C(=O)[C@@]1(C)CO1)C(C)C (stereo in doubt) [Compound 1, N-((S)-3-Methyl-1-(((S)-1-(((S)-4-methyl-1-((R)-2-methyloxiran-2-yl)-1-oxopentan-2-yl)amino)-1-oxo-3-((perfluorophenyl)thio)propan-2-yl)amino)-1-oxobutan-2-yl)hexanamide] |  |  |  | Mean Permeability ([1]; PAMPA-BBB): 0.63 10^−6 cm/sec; IC50 (D283-med cell line; [2]): 236 ± 27 nM; IC50 (SF188 cell line; [3]): 143 ± 18 nM
2 | CC(C)C[C@H](NC(=O)C(CSc1c(F)c(F)c(F)c(F)c1F)NC(=O)[C@@H](NC(=O)Cc1c(F)c(F)c(F)c(F)c1F)C(C)C)C(=O)[C@@]1(C)CO1 (stereo in doubt) [Compound 3, (S)-3-Methyl-N-((S)-1-(((S)-4-methyl-1-((R)-2-methyloxiran-2-yl)-1-oxopentan-2-yl)amino)-1-oxo-3-((perfluorophenyl)thio)propan-2-yl)-2-(2-(perfluorophenyl)acetamido)butanamide] |  |  |  | IC50 (D283-med cell line; [2]): 102 ± 7 nM; IC50 (SF188 cell line; [3]): 213 ± 10 nM
3 | CCCCCC(=O)N[C@H](C(=O)N[C@@H](CCS(C)(=O)=O)C(=O)N[C@@H](CC(C)C)C(=O)[C@@]1(C)CO1)C(C)C [Carmaphycin B, reference compound] | 111 ± 30 nM | 13 ± 2 nM | 19 ± 2 nM | 
4 | CC(C)C[C@H](NC(=O)[C@@H](CSc1c(F)c(F)c(F)c(F)c1F)NC(=O)Cc1c(F)c(F)c(F)c(F)c1F)C(=O)[C@@]1(C)CO1 [Compound 5, (S)-N-((S)-4-Methyl-1-((R)-2-methyloxiran-2-yl)-1-oxopentan-2-yl)-2-(2-(perfluorophenyl)acetamido)-3-((perfluorophenyl)thio)propenamide] | > 10000 nM | > 10000 nM | > 10000 nM | 
5 | CC(C)C[C@H](NC(=O)[C@@H](CSc1c(F)c(F)c(F)c(F)c1F)NC(=O)c1cc(Cl)ccc1Cl)C(=O)[C@@]1(C)CO1 [Compound 6, 2,5-Dichloro-N-((S)-1-(((S)-4-methyl-1-((R)-2-methyloxiran-2-yl)-1-oxopentan-2-yl)amino)-1-oxo-3-((perfluorophenyl)thio)propan-2-yl)benzamide] |  |  |  | IC50 (D283-med cell line; [2]): > 10000 nM; IC50 (SF188 cell line; [3]): 4080 ± 770 nM
6 | CC(C)C[C@H](NC(=O)CNC(=O)Cc1c(F)c(F)c(F)c(F)c1F)C(=O)[C@@]1(C)CO1 [Compound 7, N-((S)-4-Methyl-1-((R)-2-methyloxiran-2-yl)-1-oxopentan-2-yl)-2-(2-(perfluorophenyl)acetamido)acetamide] |  |  |  | IC50 (D283-med cell line; [2]): > 10000 nM; IC50 (SF188 cell line; [3]): > 10000 nM
7 | CC(C)C[C@H](NC(=O)CNC(=O)c1cc(Cl)ccc1Cl)C(=O)[C@@]1(C)CO1 [Compound 8, 2,5-Dichloro-N-(2-(((S)-4-methyl-1-((R)-2-methyloxiran-2-yl)-1-oxopentan-2-yl)amino)-2-oxoethyl)benzamide] |  |  |  | IC50 (D283-med cell line; [2]): 3700 ± 270 nM; IC50 (SF188 cell line; [3]): 532 ± 23 nM
8 | CC(C)C[C@H](NC(=O)[C@@H]1Cc2c(F)c(F)c(c(F)c2F)Sc2ccc(cc2)CC(=O)N[C@@H](C(C)C)C(=O)N1)C(=O)[C@@]1(C)CO1 [Compound 9, (5S,8S)-3^2,3^3,3^5,3^6-Tetrafluoro-8-isopropyl-N-((S)-4-methyl-1-((R)-2-methyloxiran-2-yl)-1-oxopentan-2-yl)-7,10-dioxo-2-thia-6,9-diaza-1,3(1,4)-dibenzenacycloundecaphane-5-carboxamide] | 754 nM |  | 87 nM | 
9 | CC(C)C[C@H](NC(=O)[C@@H]1Cc2c(F)c(F)c(c(F)c2F)Sc2cccc(c2)CC(=O)N[C@@H](C(C)(C)C)C(=O)N1)C(=O)[C@@]1(C)CO1 [Compound 12, (5S,8S)-8-(Tert-butyl)-3^2,3^3,3^5,3^6-tetrafluoro-N-((S)-4-methyl-1-((R)-2-methyloxiran-2-yl)-1-oxopentan-2-yl)-7,10-dioxo-2-thia-6,9-diaza-1(1,3),3(1,4)-dibenzenacycloundecaphane-5-carboxamide] | 2470 nM | 432 ± 74 nM | 507 ± 134 nM | 
10 | CC(C)C[C@H](NC(=O)[C@@H]1Cc2c(F)c(F)c(c(F)c2F)Sc2cccc(c2)CC(=O)N2C[C@H]3[C@@H]([C@H]2C(=O)N1)C3(C)C)C(=O)[C@@]1(C)CO1 [Compound 13, (61S,64S,65R,9S)-1^2,1^3,1^5,1^6-Tetrafluoro-6^6,6^6-dimethyl-N-((S)-4-methyl-1-((R)-2-methyloxiran-2-yl)-1-oxopentan-2-yl)-5,7-dioxo-2-thia-6^3,8-diaza-6(3,4)-bicyclo[3.1.0]hexana-1(1,4),3(1,3)-dibenzenacyclodecaphane-9-carboxamide] | > 15000 nM | > 15000 nM | > 15000 nM | 
11 | CC(C)C[C@H](NC(=O)[C@@H]1Cc2c(F)c(F)c(c(F)c2F)Sc2cccc(c2)CC(=O)N[C@H](C(C)C)CC(=O)N1)C(=O)[C@@]1(C)CO1 [Compound 16, (5S,9S)-3^2,3^3,3^5,3^6-Tetrafluoro-9-isopropyl-N-((S)-4-methyl-1-((R)-2-methyloxiran-2-yl)-1-oxopentan-2-yl)-7,11-dioxo-2-thia-6,10-diaza-1(1,3),3(1,4)-dibenzenacyclododecaphane-5-carboxamide] | > 15000 nM | 6090 nM | > 15000 nM | 
12 | CC(C)C[C@H](NC(=O)[C@@H]1Cc2c(F)c(F)c(c(F)c2F)Sc2cccc(c2)CC(=O)N[C@@H](C(C)C)CC(=O)N1)C(=O)[C@@]1(C)CO1 [Compound 17, (5S,9R)-3^2,3^3,3^5,3^6-Tetrafluoro-9-isopropyl-N-((S)-4-methyl-1-((R)-2-methyloxiran-2-yl)-1-oxopentan-2-yl)-7,11-dioxo-2-thia-6,10-diaza-1(1,3),3(1,4)-dibenzenacyclododecaphane-5-carboxamide] | 5380 nM | 1800 nM | 2460 nM | 
13 | CC(C)C[C@H](NC(=O)[C@@H]1Cc2c(F)c(F)c(c(F)c2F)Sc2cccc(c2)CC(=O)N(C)[C@@H](C(C)C)C(=O)N1)C(=O)[C@@]1(C)CO1 [Compound 19, (5S,8S)-3^2,3^3,3^5,3^6-Tetrafluoro-8-isopropyl-9-methyl-N-((S)-4-methyl-1-((R)-2-methyloxiran-2-yl)-1-oxopentan-2-yl)-7,10-dioxo-2-thia-6,9-diaza-1(1,3),3(1,4)-dibenzenacycloundecaphane-5-carboxamide] | > 15000 nM | 10800 nM | 12300 nM | 
14 | CC(C)C[C@H](NC(=O)[C@@H]1Cc2c(F)c(F)c(c(F)c2F)Sc2cccc(c2)CC(=O)NC(C)(C)C(=O)N1)C(=O)[C@@]1(C)CO1 [Compound 20, (S)-3^2,3^3,3^5,3^6-Tetrafluoro-8,8-dimethyl-N-((S)-4-methyl-1-((R)-2-methyloxiran-2-yl)-1-oxopentan-2-yl)-7,10-dioxo-2-thia-6,9-diaza-1(1,3),3(1,4)-dibenzenacycloundecaphane-5-carboxamide] | 828 ± 57 nM | 662 ± 44 nM | 611 ± 85 nM | 
15 | CC(C)C[C@H](NC(=O)[C@@H]1Cc2c(F)c(F)c(c(F)c2F)Sc2cccc(c2)CC(=O)NCC(=O)N1)C(=O)[C@@]1(C)CO1 [Compound 21, (S)-32,33,35,36-Tetrafluoro-N-((S)-4-methyl-1-((R)-2-methyloxiran-2-yl)-1-oxopentan-2-yl)-7,10-dioxo-2-thia-6,9-diaza-1(1,3),3(1,4)-dibenzenacycloundecaphane-5-carboxamide] | > 15000 nM | 5000 nM | > 15000 nM | 
16 | CC(C)C[C@H](NC(=O)[C@@H]1Cc2c(F)c(F)c(c(F)c2F)[S+]([O-])c2cccc(c2)CC(=O)N[C@@H](C(C)(C)O)C(=O)N1)C(=O)[C@@]1(C)CO1 (stereo partly drawn) [Compound 23, (5S,8S)-3^2,3^3,3^5,3^6-Tetrafluoro-8-(2-hydroxypropan-2-yl)-N-((S)-4-methyl-1-((R)-2-methyloxiran-2-yl)-1-oxopentan-2-yl)-7,10-dioxo-2-thia-6,9-diaza-1(1,3),3(1,4)-dibenzenacycloundecaphane-5-carboxamide 2-oxide] | 1640 ± 87 nM | 176 ± 2 nM | 205 ± 21 nM | 
17 | CC(C)CC(NC(=O)C1Cc2c(F)c(F)c(c(F)c2F)S(=O)(=O)c2cccc(c2)CC(=O)NC(C(C)C)CC(=O)N1)C(=O)C1(C)CO1 [Compound 25, (5S,9S)-3^2,3^3,3^5,3^6-Tetrafluoro-9-isopropyl-N-((S)-4-methyl-1-((R)-2-methyloxiran-2-yl)-1-oxopentan-2-yl)-7,11-dioxo-2-thia-6,10-diaza-1(1,3),3(1,4)-dibenzenacyclododecaphane-5-carboxamide 2,2-dioxide] | > 15000 nM | > 15000 nM | > 15000 nM | 
18 | CC(C)C[C@H](NC(=O)[C@@H]1Cc2c(F)c(F)c(c(F)c2F)S(=O)(=O)c2cccc(c2)CC(=O)N[C@@H](C(C)C)CC(=O)N1)C(=O)[C@@]1(C)CO1 [Compound 26, (5S,9R)-3^2,3^3,3^5,3^6-Tetrafluoro-9-isopropyl-N-((S)-4-methyl-1-((R)-2-methyloxiran-2-yl)-1-oxopentan-2-yl)-7,11-dioxo-2-thia-6,10-diaza-1(1,3),3(1,4)-dibenzenacyclododecaphane-5-carboxamide 2,2-dioxide] | 2360 nM | 472 ± 36 nM | 673 ± 50 nM | 
19 | CC(=O)O[C@@H](C)[C@@H]1NC(=O)Cc2cccc(c2)S(=O)(=O)c2c(F)c(F)c(c(F)c2F)C[C@@H](C(=O)N[C@@H](CC(C)C)C(=O)[C@@]2(C)CO2)NC1=O [Compound 28, (S)-1-((5S,8S)-3^2,3^3,3^5,3^6-Tetrafluoro-5-(((S)-4-methyl-1-((R)-2-methyloxiran-2-yl)-1-oxopentan-2-yl)carbamoyl)-2,2-dioxido-7,10-dioxo-2-thia-6,9-diaza-1(1,3),3(1,4)-dibenzenacycloundecaphane-8-yl)ethyl acetate] | 549 ± 21 nM | 44 ± 6 nM | 148 ± 35 nM | 
20 | Cc1ncc2n1-c1ccc(Cl)cc1C(c1ccccc1F)=NC2 [Midazolam, reference compound] |  |  |  | Papp ([1]; PAMPA): 6.8 ×10⁻⁶ cm/s; recovery ([1]; PAMPA): 84%
21 | Cn1c(=O)c2[nH]cnc2n(C)c1=O [Theophylline, reference compound] |  |  |  | recovery ([1]; PAMPA, % Recovery, PAMPA-BBB): 96%
